Earlier results as cited in patent publication US20230210792A1, “USE OF A COMBINATION OF […] A CXCR-2 INHIBITORS FOR THE TREATMENT OR PREVENTION OF FAMILIAL MEDITERRANEAN FEVER (FMF) AND FLARE-UPS THEREOF” (ARISTEA THERAPEUTICS, INC., priority 2020, published 2023).

Structure (SMILES): COc1cc2c(c(OC)c1OC)-c1ccc(OC)c(=O)cc1[C@@H](NC(C)=O)CC2 [Colchicine]
- Peak concentrations occur in (time to peak) (absorbed from the gastrointestinal tract): 0.5 to 2 h
- eliminated unchanged in the urine (metabolized in the liver, excreted primarily in the feces): 10-20%
